PMC7708056 (2020)

How the values were obtained:
[1] = test system: 18GAAA-D1 (NAD+ riboswitch domain 1, WT) (RNA, riboswitch) GGCUUCAACAACCCCGUAGGUGGGGACGAAAGUCAGCGCACCUACUGGAGCC; experiment: ITC; details: 50 mM NaCl, 10 mM MgCl2; for Kd: 50 mM HEPES pH 7.0, 25 °C (Figure S7 legend: 20 °C), apparent
[2] = test system: A11Ap domain 1 (RNA, riboswitch, 2-aminopurine at 11) GGCUUCAACAACCCCGUAGGUGGGGACGAAAGUCAGCGCACCUACUGGAGCC; experiment: 2-aminopurine fluorescence titration; details: 100 mM KCl, 50 mM MgCl2; 50 mM KMOPS pH 7.5, 20 °C, 0.5 μM RNA, apparent
[3] = test system: U11Ap domain 2 (RNA, riboswitch, 2-aminopurine at 11) GGUUUCAACAUCCCCGUUCGGCGCUCGAAAGAGGUGGCCGGACUGAAGCC; experiment: 2-aminopurine fluorescence titration; details: 100 mM KCl, 50 mM MgCl2; 50 mM KMOPS pH 7.5, 20 °C, 0.5 μM RNA, apparent
[4] = test system: G36A/G38A/A11Ap domain 1 (RNA, riboswitch, 2-aminopurine at 11) GGCUUCAACAACCCCGUAGGUGGGGACGAAAGUCAACACACCUACUGGAGCC; experiment: 2-aminopurine fluorescence
[5] = test system: 18GAAA-D1 G36C/G38C (RNA, riboswitch) GGCUUCAACAACCCCGUAGGUGGGGACGAAAGUCACCCCACCUACUGGAGCC; experiment: ITC; details: 50 mM NaCl, 10 mM MgCl2; 50 mM HEPES pH 7.0, 25 °C; 2 mM ligand stock titrated into 0.1 mM RNA
[6] = test system: C13U/C14U/G36A/G38A domain 1, Ap variant (RNA, riboswitch, 2-aminopurine (position not given)) GGCUUCAACAACUUCGUAGGUGGGGACGAAAGUCAACACACCUACUGGAGCC; experiment: 2-aminopurine fluorescence
[7] = test system: A11Ap domain 1 (RNA, riboswitch, 2-aminopurine at 11) GGCUUCAACAACCCCGUAGGUGGGGACGAAAGUCAGCGCACCUACUGGAGCC; experiment: 2-aminopurine fluorescence, real time; details: 100 mM KCl, 50 mM MgCl2; 50 mM KMOPS pH 7.5, 20 °C, 0.5 μM RNA, 0.3 mM ligand
[8] = test system: 18GAAA-D1 C14G/G36C (RNA, riboswitch) GGCUUCAACAACCGCGUAGGUGGGGACGAAAGUCACCGCACCUACUGGAGCC; experiment: ITC; details: 50 mM NaCl, 10 mM MgCl2; 50 mM HEPES pH 7.0, 25 °C; 2 mM ligand stock titrated into 0.1 mM RNA
[9] = test system: 18GAAA-D1 A10C (RNA, riboswitch) GGCUUCAACCACCCCGUAGGUGGGGACGAAAGUCAGCGCACCUACUGGAGCC; experiment: ITC; details: 50 mM NaCl, 10 mM MgCl2; 50 mM HEPES pH 7.0, 25 °C; 2 mM ligand stock titrated into 0.1 mM RNA
[10] = test system: 18GAAA-D1 A35C (RNA, riboswitch) GGCUUCAACAACCCCGUAGGUGGGGACGAAAGUCCGCGCACCUACUGGAGCC; experiment: ITC; details: 50 mM NaCl, 10 mM MgCl2; 50 mM HEPES pH 7.0, 25 °C; 2 mM ligand stock titrated into 0.1 mM RNA
[11] = test system: 18GAAA-D1 A10G (RNA, riboswitch) GGCUUCAACGACCCCGUAGGUGGGGACGAAAGUCAGCGCACCUACUGGAGCC; experiment: ITC; details: 50 mM NaCl, 10 mM MgCl2; 50 mM HEPES pH 7.0, 25 °C; 2 mM ligand stock titrated into 0.1 mM RNA
[12] = test system: 18GAAA-D1 C6U/G47A (RNA, riboswitch) GGCUUUAACAACCCCGUAGGUGGGGACGAAAGUCAGCGCACCUACUAGAGCC; experiment: ITC; details: 50 mM NaCl, 10 mM MgCl2; 50 mM HEPES pH 7.0, 25 °C; 2 mM ligand stock titrated into 0.1 mM RNA
[13] = test system: 18GAAA-D1 G38C (RNA, riboswitch) GGCUUCAACAACCCCGUAGGUGGGGACGAAAGUCAGCCCACCUACUGGAGCC; experiment: ITC; details: 50 mM NaCl, 10 mM MgCl2; 50 mM HEPES pH 7.0, 25 °C; 2 mM ligand stock titrated into 0.1 mM RNA
[14] = test system: 18GAAA-D1 G36C (RNA, riboswitch) GGCUUCAACAACCCCGUAGGUGGGGACGAAAGUCACCGCACCUACUGGAGCC; experiment: ITC; details: 50 mM NaCl, 10 mM MgCl2; 50 mM HEPES pH 7.0, 25 °C; 2 mM ligand stock titrated into 0.1 mM RNA
[15] = test system: 832GAAA-D2 (NAD+ riboswitch domain 2) (RNA, riboswitch) GGUUUCAACAUCCCCGUUCGGCGCUCGAAAGAGGUGGCCGGACUGAAGCC; experiment: X-ray crystallography, 2.1 Å; details: Mg2+
[16] = test system: 18GAAA-D1 A11U (RNA, riboswitch) GGCUUCAACAUCCCCGUAGGUGGGGACGAAAGUCAGCGCACCUACUGGAGCC; experiment: ITC; details: 50 mM NaCl, 10 mM MgCl2; 50 mM HEPES pH 7.0, 25 °C (Figure S7 legend: 20 °C), apparent
[17] = test system: 18GAAA-D1 C13G/G38C (RNA, riboswitch) GGCUUCAACAACGCCGUAGGUGGGGACGAAAGUCAGCCCACCUACUGGAGCC; experiment: ITC; details: 50 mM NaCl, 10 mM MgCl2; 50 mM HEPES pH 7.0, 25 °C; 2 mM ligand stock titrated into 0.1 mM RNA
[18] = test system: 17delU1A-D1 (NAD+ riboswitch domain 1) (RNA, riboswitch) GGCGCAACAUCCCCGCCGGUUGGGCGCAUUGCACUCCGCGCAGUGAACCGGCUGCGCC; experiment: X-ray crystallography, 2.80 Å; details: Mg2+; co-crystallised with U1A protein
[19] = test system: 18GAAA-D1 A8G (RNA, riboswitch) GGCUUCAGCAACCCCGUAGGUGGGGACGAAAGUCAGCGCACCUACUGGAGCC; experiment: ITC; details: 50 mM NaCl, 10 mM MgCl2; 50 mM HEPES pH 7.0, 25 °C; 2 mM ligand stock titrated into 0.1 mM RNA
[20] = test system: 18GAAA-D1 C13U/C14U/G36A/G38A (RNA, riboswitch) GGCUUCAACAACUUCGUAGGUGGGGACGAAAGUCAACACACCUACUGGAGCC; experiment: ITC; details: 50 mM NaCl, 10 mM MgCl2; 50 mM HEPES pH 7.0, 25 °C; 2 mM ligand stock titrated into 0.1 mM RNA
[21] = test system: 18GAAA-D1 C6G/G47C (RNA, riboswitch) GGCUUGAACAACCCCGUAGGUGGGGACGAAAGUCAGCGCACCUACUCGAGCC; experiment: ITC; details: 50 mM NaCl, 10 mM MgCl2; 50 mM HEPES pH 7.0, 25 °C; 2 mM ligand stock titrated into 0.1 mM RNA
[22] = test system: 18GAAA-D1 G23A/C37U (RNA, riboswitch) GGCUUCAACAACCCCGUAGGUGAGGACGAAAGUCAGUGCACCUACUGGAGCC; experiment: ITC; details: 50 mM NaCl, 10 mM MgCl2; 50 mM HEPES pH 7.0, 25 °C; 2 mM ligand stock titrated into 0.1 mM RNA
[23] = test system: 18GAAA-D1 A8U (RNA, riboswitch) GGCUUCAUCAACCCCGUAGGUGGGGACGAAAGUCAGCGCACCUACUGGAGCC; experiment: ITC; details: 50 mM NaCl, 10 mM MgCl2; 50 mM HEPES pH 7.0, 25 °C; 2 mM ligand stock titrated into 0.1 mM RNA

## NC(=O)c1ccc[n+]([C@@H]2O[C@H](COP(=O)([O-])O)[C@@H](O)[C@H]2O)c1
[1]; 50 mM HEPES pH 7.0, 25 °C, 2 mM ligand stock titrated into 0.1 mM RNA
  binding: no

## Nc1ncnc2c1ncn2[C@@H]1O[C@H](COP(=O)(O)OP(=O)(O)O)[C@@H](O)[C@H]1O
[2]
  KD^ADP: 94 ± 3 µM
[3]
  KD^ADP: 3400 ± 500 µM
[4]
  binding: yes
[1]
  Kd: 95.3 ± 0.3 µM

## Nc1ncnc2c1ncn2[C@@H]1O[C@H](COP(=O)(O)OP(=O)(O)OP(=O)(O)O)[C@@H](O)[C@H]1O
[1]
  Kd: 90.2 ± 8.6 µM

## NC(=O)C1=CN([C@@H]2O[C@H](COP(=O)(O)OP(=O)(O)OC[C@H]3O[C@@H](n4cnc5c(N)ncnc54)[C@H](O)[C@@H]3O)[C@@H](O)[C@H]2O)C=CC1
[1]
  Kd: 305 ± 46.4 µM

## NC(=O)c1ccc[n+]([C@@H]2O[C@H](COP(=O)(O)OP(=O)(O)OC[C@H]3O[C@@H](n4cnc5c(N)ncnc54)[C@H](O)[C@@H]3O)[C@@H](O)[C@H]2O)c1
[5]
  binding: no
[6]
  binding: no
[7]
  binding: yes
[8]
  binding: no
[9]
  binding: no
[10]
  binding: no
[11]
  binding: no
[12]
  binding: no
[13]
  binding: no
[14]
  binding: no
[15]
  binding: yes
[16]
  Kd: 111 ± 24.6 µM
[17]
  binding: no
[18]
  binding: yes
[19]
  binding: no
[20]
  binding: no
[21]
  binding: no
[4]
  binding: yes
[22]
  binding: no
[1]
  Kd: 127 ± 9.5 µM
[23]
  binding: no
